# Experiments:
# [1] = tested on: Human immunodeficiency virus 1; assay: Antiviral activity against wild type HIV-1 IIIB harboring reverse transcriptase […] mutant infected in human MT4 cells assessed as protection against virus-induced cytopathic effect incubated for 5 days by MTT assay; assay type: functional, organism-based; details: Human immunodeficiency virus 1, IIIB, MT4, 120 h
# [2] = Cytotoxicity against human MT4 cells assessed as reduction in cell viability incubated for 5 days by MTT assay; assay type: toxicity, cell-based; details: time 5 day
# [3] = Resistant factor, ratio of EC50 for antiviral activity against HIV-1 IIIB harboring reverse transcriptase Y188L mutant to EC50 for antiviral activity against wild type HIV-1 IIIB; assay type: functional
# [4] = Resistant factor, ratio of EC50 for antiviral activity against HIV-1 IIIB harboring reverse transcriptase Y181C mutant to EC50 for antiviral activity against wild type HIV-1 IIIB; assay type: functional
# [5] = Resistant factor, ratio of EC50 for antiviral activity against HIV-1 IIIB harboring reverse transcriptase K103N mutant to EC50 for antiviral activity against wild type HIV-1 IIIB; assay type: functional
# [6] = tested on: Human immunodeficiency virus 1; assay: Antiviral activity against wild type HIV-1 IIIB harboring reverse transcriptase Y188L mutant infected in human MT4 cells assessed as protection against virus-induced cytopathic effect incubated for 5 days by MTT assay; assay type: functional, organism-based; details: Human immunodeficiency virus 1, IIIB, MT4, 120 h
# [7] = tested on: Human immunodeficiency virus 1; assay: Antiviral activity against wild type HIV-1 IIIB harboring reverse transcriptase K103N mutant infected in human MT4 cells assessed as protection against virus-induced cytopathic effect incubated for 5 days by MTT assay; assay type: functional, organism-based; details: Human immunodeficiency virus 1, IIIB, MT4, 120 h
# [8] = Selectivity index, ratio of CC50 for cytotoxicity against human MT4 cells to EC50 for antiviral activity against wild type HIV-1 IIIB infected in human MT4 cells; assay type: toxicity, cell-based; details: read-out: Ratio CC50/EC50
# [9] = Resistant factor, ratio of EC50 for antiviral activity against HIV-1 IIIB harboring reverse transcriptase E138K mutant to EC50 for antiviral activity against wild type HIV-1 IIIB; assay type: functional
# [10] = tested on: Human immunodeficiency virus 1; assay: Antiviral activity against wild type HIV-1 IIIB harboring reverse transcriptase Y181C mutant infected in human MT4 cells assessed as protection against virus-induced cytopathic effect incubated for 5 days by MTT assay; assay type: functional, organism-based; details: Human immunodeficiency virus 1, IIIB, MT4, 120 h
# [11] = tested on: Human immunodeficiency virus 1; assay: Antiviral activity against wild type HIV-1 IIIB infected in human MT4 cells assessed as protection against virus-induced cytopathic effect incubated for 5 days by MTT assay; assay type: functional, organism-based; details: Human immunodeficiency virus 1, IIIB, MT4, 120 h
# [12] = Resistant factor, ratio of EC50 for antiviral activity against HIV-1 IIIB harboring reverse transcriptase […] mutant to EC50 for antiviral activity against wild type HIV-1 IIIB; assay type: functional
# [13] = biological target: Human immunodeficiency virus type 1 reverse transcriptase (Human immunodeficiency virus 1, UniProt Q72547); assay: Inhibition of recombinant wild type HIV-1 reverse transcriptase using DNA/RNA as substrate incubated for 40 mins by Pico-green dye based spectrofluorometric analysis
# [14] = tested on: Human immunodeficiency virus 1; assay: Antiviral activity against wild type HIV-1 IIIB harboring reverse transcriptase E138K mutant infected in human MT4 cells assessed as protection against virus-induced cytopathic effect incubated for 5 days by MTT assay; assay type: functional, organism-based; details: Human immunodeficiency virus 1, IIIB, MT4, 120 h
# Cytochrome P450 2C19 = Cytochrome P450 2C19 (Homo sapiens, UniProt P33261); assay: Inhibition of CYP2C19 in human liver microsomes using S-mephenytoin as substrate incubated for 15 to 45 mins in presence of NADPH; assay type: ADME, Microsome
# Chain of Cytochrome P450 2C19 (P33261 whole entry): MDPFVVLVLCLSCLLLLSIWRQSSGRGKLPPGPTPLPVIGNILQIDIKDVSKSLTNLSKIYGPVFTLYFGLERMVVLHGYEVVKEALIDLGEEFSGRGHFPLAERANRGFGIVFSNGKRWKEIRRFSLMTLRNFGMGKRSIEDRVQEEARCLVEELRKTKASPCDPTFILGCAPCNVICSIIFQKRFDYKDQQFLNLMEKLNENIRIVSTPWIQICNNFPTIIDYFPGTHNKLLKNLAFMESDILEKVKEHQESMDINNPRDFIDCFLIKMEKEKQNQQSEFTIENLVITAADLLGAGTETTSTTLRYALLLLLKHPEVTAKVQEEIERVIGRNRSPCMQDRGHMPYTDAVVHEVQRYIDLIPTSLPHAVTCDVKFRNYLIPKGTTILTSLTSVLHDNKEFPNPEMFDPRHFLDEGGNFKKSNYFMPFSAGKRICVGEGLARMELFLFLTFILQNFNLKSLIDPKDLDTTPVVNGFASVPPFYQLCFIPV
SMILES,EC50 [1],CC50 at 120 h [2],Ratio EC50 [3],Ratio EC50 [4],Ratio EC50 [5],EC50 [6],EC50 [7],selectivity ratio [8],Ratio EC50 [9],EC50 [10],EC50 [11],Ratio EC50 [12],IC50 [13],EC50 [14],IC50 (Cytochrome P450 2C19)
N#Cc1ccc(Nc2ncc(C(N)=O)c(Oc3ccc(-c4ccc(C#N)cc4)cc3F)n2)cc1,231 µM,> 278 µM,>1713,>1713,391,> 278 µM,63.4 µM,> 1720,9.9,> 278 µM,0.162 µM,1429,0.025 µM,1.61 µM,
Cc1cc(-c2ccc(C#N)cc2)cc(C)c1Oc1nc(Nc2ccc(C#N)cc2)ncc1C(=O)NCC1CC1,0.872 µM,210 µM,19,11,4.4,1.9 µM,0.445 µM,2060,2.4,1.16 µM,0.102 µM,8.5,0.294 µM,0.248 µM,
Cc1cc(-c2ccc(C#N)cc2)cc(C)c1Oc1nc(Nc2ccc(C#N)cc2)ncc1C(=O)NC1CCCCC1,1.68 µM,> 230 µM,30,26,7.6,5.14 µM,1.33 µM,> 1320,4.7,4.46 µM,0.174 µM,9.7,0.329 µM,0.817 µM,
C=C(C)[C@@H]1CCC2=CC(=O)C[C@@H](C)[C@]2(C)C1 [NOOTKATONE],,,,,,,,,,,,,,,1.57 µM
Cc1cc(-c2ccc(C#N)cc2)ccc1Oc1nc(Nc2ccc(C#N)cc2)ncc1C(N)=O,0.994 µM,> 280 µM,230,140,3,7.12 µM,0.094 µM,> 9000,3.7,4.34 µM,0.031 µM,32,0.019 µM,0.115 µM,
CNC(=O)c1cnc(Nc2ccc(C#N)cc2)nc1Oc1c(C)cc(-c2ccc(C#N)cc2)cc1C,0.009 µM,> 42.1 µM,10,8.2,1.5,0.034 µM,0.005 µM,> 12700,1.8,0.027 µM,0.003 µM,2.7,0.056 µM,0.006 µM,
Cc1cc(-c2ccc(C#N)cc2)cc(C)c1Oc1nc(Nc2ccc(C#N)cc2)ncc1C(=O)NC1CC1,0.051 µM,116 µM,19,14,2.9,0.209 µM,0.032 µM,10600,2.8,0.157 µM,0.011 µM,4.6,0.111 µM,0.031 µM,
COCCNC(=O)c1cnc(Nc2ccc(C#N)cc2)nc1Oc1c(C)cc(-c2ccc(C#N)cc2)cc1C,0.074 µM,161 µM,33,10,5.8,0.19 µM,0.033 µM,28100,3.5,0.058 µM,0.005 µM,13,0.128 µM,0.02 µM,
N#Cc1ccc(Nc2ncc(C(N)=O)c(Oc3c(F)cc(-c4ccc(C#N)cc4)cc3F)n2)cc1,1.21 µM,> 53.4 µM,1178,362,5.8,35.3 µM,0.175 µM,> 1780,5.3,10.9 µM,0.03 µM,40,0.021 µM,0.159 µM,

# Reference: ChEMBL document CHEMBL5380843 (J Med Chem, 2023)
